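Step 1: Grow cells in 96-well plates. Step 2: Expose to compound for 48 hours at 5 concentrations. Step 3: Interpolate endpoints linearly; if unreached, use highest concentration. The concentration for 50% growth inhibition is given as GI50.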 Activity calls are given as the source filed them. Rule as the data show it: active = GI50 up to about 1.1 µM and inactive = higher.
Experiments:
Test in all cases: growth of human tumour cells (NCI), 48 h
786-0 = test system: 786-0
A498 = test system: A498
A549 = test system: A549
ACHN = test system: ACHN
BT-549 = test system: BT-549
CAKI-1 = test system: CAKI-1
CCRF-CEM = test system: CCRF-CEM
COLO 205 = test system: COLO 205
DU-145 = test system: DU-145
HCC 2998 = test system: HCC 2998
HCT-116 = test system: HCT-116
HCT-15 = test system: HCT-15
HL-60 = test system: HL-60
HOP-62 = test system: HOP-62
HT-29 = test system: HT-29
Hs-578T = test system: Hs-578T
IGROV-1 = test system: IGROV-1
K562 = test system: K562
KM12 = test system: KM12
M14 = test system: M14
MCF7 = test system: MCF7
MDA-MB-231 = test system: MDA-MB-231
MDA-MB-435 = test system: MDA-MB-435
MDA-N = test system: MDA-N
MOLT-4 = test system: MOLT-4
Malme-3M = test system: Malme-3M
NCI-H226 = test system: NCI-H226
NCI-H23 = test system: NCI-H23
NCI-H460 = test system: NCI-H460
NCI-H522 = test system: NCI-H522
NCI/ADR-RES = test system: NCI/ADR-RES
OVCAR-3 = test system: OVCAR-3
OVCAR-5 = test system: OVCAR-5
OVCAR-8 = test system: OVCAR-8
PC-3 = test system: PC-3
SF-268 = test system: SF-268
SF-295 = test system: SF-295
SF-539 = test system: SF-539
SK-MEL-28 = test system: SK-MEL-28
SK-MEL-2 = test system: SK-MEL-2
SK-MEL-5 = test system: SK-MEL-5
SK-OV-3 = test system: SK-OV-3
SN12C = test system: SN12C
SNB-19 = test system: SNB-19
SNB-75 = test system: SNB-75
SR = test system: SR
SW-620 = test system: SW-620
T47D = test system: T47D
TK-10 = test system: TK-10
U-251 = test system: U-251
UACC-257 = test system: UACC-257
UACC-62 = test system: UACC-62
UO-31 = test system: UO-31
EKVX = test system: EKVX
LOX IMVI = test system: LOX IMVI
OVCAR-4 = test system: OVCAR-4
RPMI-8226 = test system: RPMI-8226
RXF 393 = test system: RXF 393

Measured: GI50

CC(C)c1cccc(C(=O)NCCN(C)C)c1[N+](=O)[O-]
inactive: 786-0 > 100 µM | A498 65.9 µM | A549 80.2 µM | ACHN > 100 µM | BT-549 19.5 µM | CAKI-1 > 100 µM | CCRF-CEM > 100 µM | COLO 205 > 100 µM | DU-145 > 100 µM | HCC 2998 > 100 µM | HCT-116 > 100 µM | HL-60 > 100 µM | HOP-62 > 100 µM | HT-29 > 100 µM | Hs-578T > 100 µM | IGROV-1 > 100 µM | K562 > 100 µM | KM12 > 100 µM | M14 > 100 µM | MCF7 > 100 µM | MDA-MB-231 > 100 µM | MDA-MB-435 > 100 µM | MDA-N > 100 µM | MOLT-4 > 100 µM | Malme-3M > 100 µM | NCI-H226 > 100 µM | NCI-H23 > 100 µM | NCI-H460 > 100 µM | NCI-H522 > 100 µM | NCI/ADR-RES > 100 µM | OVCAR-3 > 100 µM | OVCAR-5 > 100 µM | OVCAR-8 > 100 µM | PC-3 > 100 µM | SF-268 > 100 µM | SF-295 > 100 µM | SF-539 > 100 µM | SK-MEL-28 > 100 µM | SK-MEL-2 > 100 µM | SK-MEL-5 > 100 µM | SK-OV-3 > 100 µM | SN12C > 100 µM | SNB-19 > 100 µM | SNB-75 35 µM | SR > 100 µM | SW-620 > 100 µM | T47D > 100 µM | TK-10 > 100 µM | U-251 > 100 µM | UACC-257 > 100 µM | UACC-62 > 100 µM | UO-31 > 100 µM
> 100 µM: HCT-15

N#C/C(N)=C(C#N)/N=C/Nc1ccccc1N
inactive: 786-0 > 100 µM | A498 > 100 µM | A549 > 100 µM | ACHN > 100 µM | BT-549 > 100 µM | CAKI-1 > 100 µM | CCRF-CEM > 100 µM | COLO 205 > 100 µM | DU-145 > 100 µM | EKVX > 100 µM | HCC 2998 > 100 µM | HCT-116 > 100 µM | HL-60 > 100 µM | HOP-62 > 100 µM | HT-29 > 100 µM | Hs-578T > 100 µM | IGROV-1 > 100 µM | K562 > 100 µM | KM12 > 100 µM | LOX IMVI > 100 µM | M14 > 100 µM | MCF7 > 100 µM | MDA-MB-231 > 100 µM | MDA-MB-435 > 100 µM | MDA-N > 100 µM | MOLT-4 > 100 µM | Malme-3M > 100 µM | NCI-H226 > 100 µM | NCI-H23 > 100 µM | NCI-H460 > 100 µM | NCI-H522 > 100 µM | NCI/ADR-RES > 100 µM | OVCAR-3 > 100 µM | OVCAR-4 > 100 µM | OVCAR-5 > 100 µM | OVCAR-8 > 100 µM | PC-3 > 100 µM | RPMI-8226 > 100 µM | SF-268 > 100 µM | SF-295 > 100 µM | SF-539 > 100 µM | SK-MEL-28 > 100 µM | SK-MEL-2 > 100 µM | SK-MEL-5 > 100 µM | SK-OV-3 > 100 µM | SN12C > 100 µM | SNB-19 > 100 µM | SNB-75 > 100 µM | SR > 100 µM | SW-620 > 100 µM | T47D > 100 µM | TK-10 > 100 µM | U-251 > 100 µM | UACC-257 > 100 µM | UACC-62 > 100 µM | UO-31 > 100 µM
> 100 µM: HCT-15

O=C1c2ccccc2C(=O)N1C1(C(=O)NC2(C(=O)O)CCCC2)CCCC1
inactive: 786-0 > 100 µM | A498 > 100 µM | A549 > 100 µM | ACHN > 100 µM | BT-549 > 100 µM | CAKI-1 > 100 µM | CCRF-CEM > 100 µM | COLO 205 > 100 µM | DU-145 > 100 µM | EKVX > 100 µM | HCC 2998 > 100 µM | HCT-116 > 100 µM | HOP-62 > 100 µM | HT-29 > 100 µM | Hs-578T > 100 µM | IGROV-1 > 100 µM | K562 > 100 µM | KM12 > 100 µM | LOX IMVI > 100 µM | M14 > 100 µM | MCF7 > 100 µM | MDA-MB-231 > 100 µM | MDA-MB-435 > 100 µM | MDA-N > 100 µM | MOLT-4 > 100 µM | Malme-3M > 100 µM | NCI-H226 > 100 µM | NCI-H23 > 100 µM | NCI-H522 > 100 µM | NCI/ADR-RES > 100 µM | OVCAR-3 > 100 µM | OVCAR-4 > 100 µM | OVCAR-5 > 100 µM | OVCAR-8 > 100 µM | PC-3 > 100 µM | RPMI-8226 > 100 µM | RXF 393 > 100 µM | SF-268 > 100 µM | SF-295 > 100 µM | SK-MEL-28 > 100 µM | SK-MEL-2 > 100 µM | SK-MEL-5 > 100 µM | SK-OV-3 > 100 µM | SN12C > 100 µM | SNB-19 > 100 µM | SNB-75 > 100 µM | SR > 100 µM | SW-620 > 100 µM | T47D > 100 µM | TK-10 > 100 µM | U-251 > 100 µM | UACC-257 > 100 µM | UACC-62 > 100 µM | UO-31 > 100 µM
> 100 µM: HCT-15

CC(C)(C)c1ccc(O)c(Br)c1
> 100 µM: HCT-15
inactive: 786-0 > 100 µM | A498 > 100 µM | A549 > 100 µM | ACHN > 100 µM | BT-549 > 100 µM | CCRF-CEM > 100 µM | COLO 205 > 100 µM | DU-145 > 100 µM | EKVX > 100 µM | HCC 2998 51.8 µM | HCT-116 > 100 µM | HL-60 36.6 µM | HOP-62 > 100 µM | HT-29 > 100 µM | Hs-578T > 100 µM | IGROV-1 19.1 µM | K562 > 100 µM | KM12 63.5 µM | LOX IMVI > 100 µM | M14 > 100 µM | MCF7 > 100 µM | MDA-MB-231 > 100 µM | MDA-MB-435 > 100 µM | MDA-N > 100 µM | MOLT-4 > 100 µM | Malme-3M > 100 µM | NCI-H226 > 100 µM | NCI-H23 > 100 µM | NCI-H460 > 100 µM | NCI-H522 > 100 µM | NCI/ADR-RES > 100 µM | OVCAR-3 > 100 µM | OVCAR-4 > 100 µM | OVCAR-5 > 100 µM | OVCAR-8 > 100 µM | PC-3 > 100 µM | RPMI-8226 > 100 µM | RXF 393 34.1 µM | SF-268 > 100 µM | SF-295 > 100 µM | SF-539 > 100 µM | SK-MEL-28 > 100 µM | SK-MEL-2 > 100 µM | SK-MEL-5 > 100 µM | SK-OV-3 > 100 µM | SN12C > 100 µM | SNB-19 > 100 µM | SNB-75 15.1 µM | SR 37.3 µM | SW-620 > 100 µM | T47D 11.5 µM | TK-10 > 100 µM | U-251 > 100 µM | UACC-257 26.2 µM | UACC-62 95.9 µM | UO-31 > 100 µM

COc1c(-c2ccc(F)cc2)oc2c(CC(=O)O)cccc2c1=O
inactive: 786-0 > 100 µM | A498 > 100 µM | A549 > 100 µM | ACHN > 100 µM | BT-549 > 100 µM | CAKI-1 22.3 µM | CCRF-CEM > 100 µM | COLO 205 > 100 µM | DU-145 > 100 µM | EKVX > 100 µM | HCC 2998 > 100 µM | HCT-116 > 100 µM | HL-60 > 100 µM | HOP-62 > 100 µM | HT-29 > 100 µM | Hs-578T > 100 µM | IGROV-1 > 100 µM | K562 > 100 µM | M14 > 100 µM | MCF7 > 100 µM | MDA-MB-231 > 100 µM | MDA-MB-435 > 100 µM | MDA-N > 100 µM | MOLT-4 > 100 µM | Malme-3M > 100 µM | NCI-H226 > 100 µM | NCI-H23 45.5 µM | NCI-H522 > 100 µM | NCI/ADR-RES > 100 µM | OVCAR-3 > 100 µM | OVCAR-5 > 100 µM | OVCAR-8 > 100 µM | PC-3 > 100 µM | RXF 393 > 100 µM | SF-268 > 100 µM | SF-295 > 100 µM | SF-539 > 100 µM | SK-MEL-2 > 100 µM | SK-MEL-5 > 100 µM | SK-OV-3 > 100 µM | SN12C > 100 µM | SR > 100 µM | T47D > 100 µM | TK-10 > 100 µM | U-251 > 100 µM | UACC-257 > 100 µM | UACC-62 > 100 µM | UO-31 40.9 µM

Reference: ChEMBL document CHEMBL1201862, “PubChem BioAssay data set” (2004)
